Assay results reported in patent US4927832A, “Novel tetrahydropyridines having analgesic activity” (Roussel Uclaf, priority 1987, dated 1990).
Where a name gives a salt, the structure may show the parent alone.

How the values were obtained:
K opiated receptor = target: T1, K opiated receptor (Cavia porcellus, UniProt P41144); experiment: Liaison to the K opiated receptor in vitro (displacement of 3H ethylketocyclazocine); format: binding, guinea pigs; details: 50% inhibiting concentration (IC50), membranes from guinea pig brains, 3H ethylketocyclazocine 1 nM, 25° C. for 40 minutes
T1 construct: prepared from the brains of guinea pigs were used; from tissue; host or cells: guinea pig brain membranes
T1 sequence (P41144 whole entry): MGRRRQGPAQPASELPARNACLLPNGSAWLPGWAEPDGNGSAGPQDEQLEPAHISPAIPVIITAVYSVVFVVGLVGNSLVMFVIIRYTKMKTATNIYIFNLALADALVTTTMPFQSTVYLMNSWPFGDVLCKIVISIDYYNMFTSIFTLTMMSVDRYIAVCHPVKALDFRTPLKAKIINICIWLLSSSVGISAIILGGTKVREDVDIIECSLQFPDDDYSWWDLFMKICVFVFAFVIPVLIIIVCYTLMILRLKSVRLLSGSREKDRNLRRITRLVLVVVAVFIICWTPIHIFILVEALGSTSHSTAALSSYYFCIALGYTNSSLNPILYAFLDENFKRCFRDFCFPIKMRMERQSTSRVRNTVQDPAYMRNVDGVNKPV
Method: (1) Liaison to the K opiated receptor in vitro:
Membrane residues preserved at -30° C. (possibly up to about 30 days) and prepared from the brains of guinea pigs were used.' The residues were suspended in Tris pH 7.7 buffer and fractions of 2 ml were distributed in hemolysis tubes, 9^3 H ethylketocyclazocine 1 nM and the product under study were added. The product was first tested at 5×10^-6 M (in triplicate). When the product tested displaced the radioactivity bound specifically to the receptor by more than 50%, it was again tested according to a range of 7 doses to determine the dose which inhibits the radioactivity bound specifically to the receptor by 50%. In this way, the 50% inhibiting concentration was determined.
The non-specific liaison was determined by adding the product known as U-50488 H (Lahti et al. 1982, Life Sci. 31, 2257) at 10^-5 M in triplicate. After incubating at 25° C. for 40 minutes, returning to the water-bath at 0° C. for 5 minutes, filtering under vacuum, and rinsing with Tris pH 7.7 buffer, the radioactivity was counted in the presence of scintillating Trition. […]

[1] = test system: Male rats of Sprague Dawley strain; experiment: Measurement of diuretic activity; format: in vivo; details: 5 mg/kg orally, urinary volume over period t0h-t5h
Method: (3) Measurement of diuretic activity Male rats of Sprague Dawley strain weighing 180-200 g were deprived of food for 17 hours before the test, while receiving water ad libitum. Groups of 8 animals were set up for each dose tested and the rats received the product under test or its vehicle orally. The urine volume was measured every hour for the 5 hours following the administration of the product. After this period, the urines were collected and the activity of the product was expressed as a percentage of variation calculated on the urinary volume corresponding to the period tOH --[…].

male mice = experiment: Analgesic activity (acetic acid stretching and twisting test); format: in vivo; details: administered orally 30 minutes before intraperitoneal acetic acid
Method: This test was based on the observation of Koster et al (Fed. Proc. 1959, 1B, 412) that the intraperitioneal injection of acetic acid causes repeated movements of stretching and twisting in rodents which can be considered as manifestations of a diffuse abdominal pain because they ae attenuated by analgesics. The acetic acid was injected at a […] male mice of average weight of […]. The product under study was administered orally 30 minutes before the injection of the acetic acid to groups of 10 animals, each trial including a control group which receives the vehicle. Five minutes after the injection of the irritant, the stretchings and twistings were counted for each animal for a period of 15 minutes. The analgesic effect of each dose of product studied was expressed as a percentage of protection in relation to the average number of movements observed in the controls receiving acetic acid alone. The DA50 or dose necessary to reduce the number of stretchings by 50% was calculated according to the method of least squares. The DA50 values obtained with the products of Example 1 and 3 were respectively 2.5 and 5 mg/kg.

rat = experiment: Anti-arrhythmic activity in the rat (aconitine perfusion); format: in vivo; details: 5 minutes before aconitine perfusion, compared with controls
Method: (2) Anti-arrhythmic activity in the rat
Male rats weighing 300-350 g, anesthesized intra-peritoneally with 1.20 g/kg of urethane, were tracheotomised and submitted to artifical respiration (40-50 insufflations of 3 ml/minute). Needles were implanted sub-cutaneously to record the electrocardiogram of the rats on the DII derivation signal and the products under test were administered intravenously. Five minutes after administering the product, the jugular vein of the rats was perfused with 10 μg/mn from 0.2 ml of an aconitine solution and the time of appearance of disturbances of the cardiac rhythm was noted. The results were expressed as percentage of extension of the time of appearance of the cardiac rhythm disturbances as compared with controls and as a function of the dose of the product tested.

## O=C(Cc1ccc(Cl)c(Cl)c1)N1CCCC2CCC(N3CCCC3)C21 (mixture of isomers) [Example 1, [4aRS (4a-α, 7a-α)](±)1-[(3,4-dichlorophenyl)-acetyl]-octahydro-7-(1-pyrrolidinyl)-1H-1-pyrindine hydrochloride (isomer cis I)]
K opiated receptor
  IC50: 4 nM
[1]
  Percentage of variation of the urine volume: +85%
Male mice; Mus musculus, po, 0.5 h, read-out: DA50 or dose necessary to reduce the number of stretchings by 50%
  ED50: 2.5 mg/kg
rat; dose 1 mg/kg intravenously
  Percentage of extension of the time of appearance of the cardiac rhythm disturbances: +26%
rat; dose 2.5 mg/kg intravenously
  Percentage of extension of the time of appearance of the cardiac rhythm disturbances: +35%

## O=C(Cc1ccc(Cl)c(Cl)c1)N1CCC[C@@H]2CCCC[C@H](N3CCCC3)[C@@H]21 (relative stereo) [Example 4, [4a-α, 9-β, 9a-α] (±) decahydro-1-([3,4-dichlorophenyl)-acetyl]-9-(1-pyrrolidinyl)-1H-cyclohepta[b]pyridine hydrochloride]
rat; dose 1 mg/kg intravenously
  Percentage of extension of the time of appearance of the cardiac rhythm disturbances: +37%
rat; dose 2.5 mg/kg intravenously
  Percentage of extension of the time of appearance of the cardiac rhythm disturbances: +65%

## O=C(Cc1ccc(Cl)c(Cl)c1)N1CCCC2CCC(N3CCCC3)C21 (stereo not drawn) [Example 3, [4aRS (4aα, 7aβ)] (35) 1-[(3.4-dichlorophenyl)acetyl]octahydro-7-(1-pyrrolidinyl)-1H-1-pyrindine hydrochloride (isomer trans I).]
K opiated receptor
  IC50: 9 nM
[1]
  Percentage of variation of the urine volume: +57%
Male mice; 30 min
  DA50 or dose necessary to reduce the number of stretchings by 50%: 5 mg/kg
